Article PMC5293833, “Mycobacterium tuberculosis Prolyl Oligopeptidase Induces In vitro Secretion of Proinflammatory Cytokines by Peritoneal Macrophages” (Frontiers in Microbiology, 2017)
Starred links: 1 amine or outer side, 2 acyl side, 3 side chain; linkers in the order of their positions; H or OH if unused. Residues, ends and D or L forms follow the SMILES beside them. *: point of attachment. AMC = Cc1cc(=O)oc2cc(N*)ccc12; Suc = O=C(CCC(=O)[*:2])[*:1]

Assays:
Format in all cases: biochemical
[1] = molecular target: T1, prolyl oligopeptidase (POPMt) (Mycobacterium tuberculosis, UniProt O07178); experiment: fluorogenic AMC substrate assay, % inhibition at […]; conditions: 1000 µM
T1 construct: gene Rv0457c

[2] = molecular target: T1, prolyl oligopeptidase (POPMt)
[3] = molecular target: T1, prolyl oligopeptidase (POPMt); experiment: fluorogenic AMC substrate assay, % inhibition at […]

T1 sequence (O07178 entry or part of it): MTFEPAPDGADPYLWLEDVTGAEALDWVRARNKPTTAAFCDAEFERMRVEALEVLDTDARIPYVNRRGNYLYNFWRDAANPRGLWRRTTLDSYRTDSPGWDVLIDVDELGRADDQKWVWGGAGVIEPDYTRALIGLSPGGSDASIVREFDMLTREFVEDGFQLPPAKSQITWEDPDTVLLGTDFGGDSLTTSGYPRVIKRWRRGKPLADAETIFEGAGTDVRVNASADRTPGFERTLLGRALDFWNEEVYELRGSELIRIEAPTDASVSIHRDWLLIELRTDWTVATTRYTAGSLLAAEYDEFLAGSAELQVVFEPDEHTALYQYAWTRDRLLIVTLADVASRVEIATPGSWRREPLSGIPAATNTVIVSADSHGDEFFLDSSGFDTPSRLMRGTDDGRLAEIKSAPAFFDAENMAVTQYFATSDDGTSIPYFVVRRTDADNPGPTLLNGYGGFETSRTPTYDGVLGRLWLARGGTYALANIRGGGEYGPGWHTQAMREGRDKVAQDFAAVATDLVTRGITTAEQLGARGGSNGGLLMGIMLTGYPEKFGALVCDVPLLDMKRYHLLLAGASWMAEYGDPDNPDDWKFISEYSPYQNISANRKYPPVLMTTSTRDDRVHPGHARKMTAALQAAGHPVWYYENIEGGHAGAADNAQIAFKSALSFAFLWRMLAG

Row | Compound | inhibition at 100 µM [3] | other results
1 | NCCc1ccc(S(=O)(=O)F)cc1 [AEBSF] |  | Inhibition (%) [1]: 33
2 | Cc1cc(=O)oc2cc(NC(=O)[C@@H]3CCCN3C(=O)CNC(=O)CCC(=O)O)ccc12 [N-Suc-Gly-Pro-AMC] (Suc-Gly-Pro-{AMC}) |  | Relative activity (%) [2]: 48 % relative activity
3 | Cc1ccc(S(=O)(=O)N[C@@H](CCCCN)C(=O)CCl)cc1 [TLCK] | 35% | 
4 | Cc1ccc(S(=O)(=O)N[C@@H](Cc2ccccc2)C(=O)CCl)cc1 [TPCK] | 66% | 
